ChEMBL document CHEMBL1132726, “Antioxidant activity and xanthine oxidase inhibition activity of reductic acid: ascorbic acid analogue” (Bioorg Med Chem Lett, 2000)

Columns and labels:
[1] = target: T1, Xanthine dehydrogenase/oxidase (Bos taurus, UniProt P80457); experiment: Compound was tested for the inhibition of xanthine oxidase; Inactive
[2] = target: T1, Xanthine dehydrogenase/oxidase; experiment: Compound was tested for the inhibition of xanthine oxidase; Active

T1 sequence (P80457 whole entry): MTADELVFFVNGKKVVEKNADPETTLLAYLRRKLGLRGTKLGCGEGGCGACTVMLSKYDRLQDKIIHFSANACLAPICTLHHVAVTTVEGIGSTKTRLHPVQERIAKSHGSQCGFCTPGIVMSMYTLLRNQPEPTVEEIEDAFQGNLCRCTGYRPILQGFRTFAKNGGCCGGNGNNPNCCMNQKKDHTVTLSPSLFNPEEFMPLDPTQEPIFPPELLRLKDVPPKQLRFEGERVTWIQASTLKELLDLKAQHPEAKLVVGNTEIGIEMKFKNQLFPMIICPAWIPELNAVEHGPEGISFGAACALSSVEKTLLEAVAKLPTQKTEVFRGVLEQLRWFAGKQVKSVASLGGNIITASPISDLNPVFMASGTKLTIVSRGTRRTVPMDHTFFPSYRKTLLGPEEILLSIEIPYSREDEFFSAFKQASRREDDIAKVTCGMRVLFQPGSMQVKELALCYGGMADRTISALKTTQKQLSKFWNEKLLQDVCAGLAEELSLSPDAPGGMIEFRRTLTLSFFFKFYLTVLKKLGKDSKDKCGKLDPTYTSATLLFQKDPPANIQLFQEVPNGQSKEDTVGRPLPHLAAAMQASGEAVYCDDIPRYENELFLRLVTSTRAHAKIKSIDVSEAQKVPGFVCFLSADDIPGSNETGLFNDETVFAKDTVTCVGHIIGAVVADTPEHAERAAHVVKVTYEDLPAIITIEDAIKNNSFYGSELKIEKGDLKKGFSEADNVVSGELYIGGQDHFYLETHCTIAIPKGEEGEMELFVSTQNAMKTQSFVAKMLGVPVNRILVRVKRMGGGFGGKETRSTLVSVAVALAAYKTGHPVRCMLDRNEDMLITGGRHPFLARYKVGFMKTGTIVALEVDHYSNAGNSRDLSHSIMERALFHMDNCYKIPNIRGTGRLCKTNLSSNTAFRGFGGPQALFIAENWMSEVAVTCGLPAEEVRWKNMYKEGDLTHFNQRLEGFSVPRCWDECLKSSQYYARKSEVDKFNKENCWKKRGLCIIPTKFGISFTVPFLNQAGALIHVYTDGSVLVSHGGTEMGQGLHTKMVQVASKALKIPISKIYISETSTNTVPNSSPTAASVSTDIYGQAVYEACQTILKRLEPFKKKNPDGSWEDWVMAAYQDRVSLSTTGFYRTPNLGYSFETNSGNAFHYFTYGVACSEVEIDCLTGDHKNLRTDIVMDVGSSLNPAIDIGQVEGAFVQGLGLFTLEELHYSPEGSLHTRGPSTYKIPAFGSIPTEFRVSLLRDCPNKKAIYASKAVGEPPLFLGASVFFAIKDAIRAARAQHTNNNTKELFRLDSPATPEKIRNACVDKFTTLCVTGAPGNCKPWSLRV

SMILES | Activity [1] | Activity [2]
O=C1O[C@H]([C@@H](O)CO)C(O)=C1O [ASCORBIC ACID] | Not Active | –
O=C1CCC(O)=C1O | – | Active
O=C1COC(O)=C1O | Not Active | –
